Experimental data from patent US20180171304A1, “CONTINUOUSLY BIOPRINTED MULTILAYER TISSUE STRUCTURE” (ASPECT BIOSYSTEMS LTD., priority 2015, published 2018).

System: muscle tube
Details: tube cultured for 14 days; contraction gradual over a 40 minute time period; FIG. 2
Description: In one embodiment, described herein are multi-layered tubes of muscle tissue. The tubes are created using a layer-by-layer deposition process by which muscle cells are dispersed within a solidified biocompatible matrix and bioprinted in a continuous fiber. In one embodiment, the fiber is deposited in a ring-like pattern to form a layer. These layers are stacked to form tubes, the height of which may be varied in a controlled way by changing the number of layers. Preferably, the matrix composition is physiologically compatible such that it allows the muscle cells to fully differentiate into a contractile phenotype. At the time of bioprinting, the tube is not contractile. […]
After bioprinting, the muscle structure must be submersed in cell culture media and placed in a cell culture incubator with temperature and carbon dioxide level control. […] In the preferred embodiment contraction and relaxation are measured by visual observation of changes in the diameter of the tube. […] Alternatively, a camera with an appropriate level of magnification could be positioned above the smooth muscle tube such that video footage of the tube from a top down perspective is recorded. […] The change in area, radius, diameter or circumference of the muscle tube may be quantified. […]

NCCc1c[nH]cn1 [histamine]
contraction of muscle tube (smaller diameter in contracted state): initiate contraction
